Measurements taken from ChEMBL document CHEMBL5143671, “Discovery of (R)-(3-fluoropyrrolidin-1-yl)(6-((5-(trifluoromethyl)pyridin-2-yl)oxy)quinolin-2-yl)methanone (ABBV-318) and analogs as small molecule Nav1.7/ Nav1.8 blockers for the treatment of pain” (Bioorg Med Chem, 2022).
Values after ≈ are worked out from the molar mass of the structure shown.

Experiments:
[1] = target: Sodium channel protein type 2 subunit alpha (Homo sapiens, UniProt Q99250); experiment: Inhibition of recombinant human Nav1.2 expressed in HEK293 cells incubated for 3 mins by FRET based membrane potential assay; type: cell-based
Sodium channel protein type 2 subunit alpha, sequence (Q99250 whole entry): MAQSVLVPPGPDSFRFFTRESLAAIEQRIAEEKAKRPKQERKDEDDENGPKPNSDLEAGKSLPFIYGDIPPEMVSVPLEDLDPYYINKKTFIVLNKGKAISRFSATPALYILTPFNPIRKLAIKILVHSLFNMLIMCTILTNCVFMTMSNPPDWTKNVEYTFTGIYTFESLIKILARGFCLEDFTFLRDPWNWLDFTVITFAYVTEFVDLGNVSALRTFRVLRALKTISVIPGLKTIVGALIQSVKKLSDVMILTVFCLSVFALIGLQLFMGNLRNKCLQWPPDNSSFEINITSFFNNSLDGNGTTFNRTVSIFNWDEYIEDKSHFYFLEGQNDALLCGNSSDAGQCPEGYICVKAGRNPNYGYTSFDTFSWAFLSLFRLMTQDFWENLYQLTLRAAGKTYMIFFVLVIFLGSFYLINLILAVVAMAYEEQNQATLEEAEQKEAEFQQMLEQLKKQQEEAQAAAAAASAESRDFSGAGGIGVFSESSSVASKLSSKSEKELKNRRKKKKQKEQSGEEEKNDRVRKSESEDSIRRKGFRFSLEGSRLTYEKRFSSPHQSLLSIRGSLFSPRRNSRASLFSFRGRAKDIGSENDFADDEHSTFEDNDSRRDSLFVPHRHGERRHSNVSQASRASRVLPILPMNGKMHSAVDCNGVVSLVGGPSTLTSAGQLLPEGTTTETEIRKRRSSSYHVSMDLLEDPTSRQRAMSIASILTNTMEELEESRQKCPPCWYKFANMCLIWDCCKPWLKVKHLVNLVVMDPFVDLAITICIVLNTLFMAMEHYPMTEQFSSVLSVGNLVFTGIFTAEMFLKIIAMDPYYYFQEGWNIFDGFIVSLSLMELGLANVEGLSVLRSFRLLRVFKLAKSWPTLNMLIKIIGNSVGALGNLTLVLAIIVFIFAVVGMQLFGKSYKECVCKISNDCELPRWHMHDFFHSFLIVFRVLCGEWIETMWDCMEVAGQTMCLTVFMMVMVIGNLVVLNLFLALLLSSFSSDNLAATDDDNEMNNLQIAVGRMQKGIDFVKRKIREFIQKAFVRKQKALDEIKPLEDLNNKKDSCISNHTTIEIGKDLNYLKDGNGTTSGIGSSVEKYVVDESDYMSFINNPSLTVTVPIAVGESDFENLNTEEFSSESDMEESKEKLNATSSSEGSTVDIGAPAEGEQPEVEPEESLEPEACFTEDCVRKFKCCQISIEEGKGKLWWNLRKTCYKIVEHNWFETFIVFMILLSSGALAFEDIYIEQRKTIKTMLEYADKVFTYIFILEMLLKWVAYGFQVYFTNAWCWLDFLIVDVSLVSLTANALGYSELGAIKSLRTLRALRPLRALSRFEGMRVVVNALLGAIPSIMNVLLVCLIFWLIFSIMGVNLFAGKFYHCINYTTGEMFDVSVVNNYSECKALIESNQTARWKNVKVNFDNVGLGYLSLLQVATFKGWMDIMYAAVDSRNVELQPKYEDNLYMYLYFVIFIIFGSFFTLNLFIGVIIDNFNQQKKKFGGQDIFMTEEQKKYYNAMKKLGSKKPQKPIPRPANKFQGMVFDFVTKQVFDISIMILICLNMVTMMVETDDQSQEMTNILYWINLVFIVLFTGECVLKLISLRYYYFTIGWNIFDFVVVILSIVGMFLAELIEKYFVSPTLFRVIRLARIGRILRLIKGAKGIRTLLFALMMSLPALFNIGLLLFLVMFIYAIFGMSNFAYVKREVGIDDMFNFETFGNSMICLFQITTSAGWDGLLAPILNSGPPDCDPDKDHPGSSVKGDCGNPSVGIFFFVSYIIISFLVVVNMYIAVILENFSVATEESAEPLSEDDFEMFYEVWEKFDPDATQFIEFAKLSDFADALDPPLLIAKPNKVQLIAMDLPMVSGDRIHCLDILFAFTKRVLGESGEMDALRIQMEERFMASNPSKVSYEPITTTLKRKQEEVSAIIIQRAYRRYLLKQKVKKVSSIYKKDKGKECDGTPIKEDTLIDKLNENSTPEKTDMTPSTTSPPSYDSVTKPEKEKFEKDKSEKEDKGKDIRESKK

[2] = Ratio of free drug concentration in brain to plasma of rat; type: ADME, cell-free; conditions: brain and plasma
[3] = Drug concentration in plasma of monoiodoacetate-induced Sprague-Dawley rat model of osteoarthritis at 3 mg/kg, po administered for 5 days and measured after 15 mins; type: ADME, organism-based; conditions: time 5 day
[4] = Drug concentration in plasma of monoiodoacetate-induced Sprague-Dawley rat model of osteoarthritis at 10 mg/kg, po administered for 5 days and measured after 15 mins; type: ADME, organism-based; conditions: time 5 day
[5] = Drug concentration in plasma of monoiodoacetate-induced Sprague-Dawley rat model of osteoarthritis at 30 mg/kg, po administered for 5 days and measured after 15 mins; type: ADME, organism-based; conditions: time 5 day
[6] = Cardiotoxicity in conscious dog CV model assessed as effect on mean arterial pressure upto […] microg/ml […]; type: toxicity, Canis lupus familiaris; conditions: dose < 5.5 µg/ml
[7] = Cardiotoxicity in conscious dog CV model assessed as effect on heart rate upto […] microg/ml by ECG analysis; type: toxicity, Canis lupus familiaris; conditions: dose < 5.5 µg/ml
[8] = Cardiotoxicity in conscious dog CV model assessed as effect on QT interval upto 5.5 microg/ml by ECG analysis; type: toxicity, Canis lupus familiaris; conditions: dose < 5.5 µg/ml
[9] = rat, in vivo, po
in vivo [10] = conditions: Sprague-Dawley, rat, po
in vivo [11] = conditions: Sprague-Dawley, rat, po; remark: listed apart in the source
physchem [12] = conditions: octanol/water
physchem [13] = conditions: phosphate buffer
in vitro = conditions: PAMPA
Rattus norvegicus [14] = organism: Rattus norvegicus; experiment: animal or person; conditions: Sprague-Dawley
Rattus norvegicus [15] = organism: Rattus norvegicus; experiment: animal or person; conditions: Sprague-Dawley; remark: listed apart in the source
Rattus norvegicus [16] = experiment: Antinociceptive activity in monoiodoacetate-induced Sprague-Dawley rat model of osteoarthritis at 3 mg/kg, po administered for 5 days and measured after 180 mins by grip force testing relative to control; type: functional; conditions: time 5 day
Rattus norvegicus [17] = experiment: Antinociceptive activity in monoiodoacetate-induced Sprague-Dawley rat model of osteoarthritis at 10 mg/kg, po administered for 5 days and measured after 180 mins by grip force testing relative to control; type: functional; conditions: time 5 day
Rattus norvegicus [18] = experiment: Antinociceptive activity in monoiodoacetate-induced Sprague-Dawley rat model of osteoarthritis at 30 mg/kg, po administered for 5 days and measured after 180 mins by grip force testing relative to control; type: functional; conditions: time 5 day
[19] = target: Voltage-gated inwardly rectifying potassium channel KCNH2 (Homo sapiens, UniProt Q12809);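 further: hERG channel blockade measured by electrophysiology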
Voltage-gated inwardly rectifying potassium channel KCNH2, sequence (Q12809 whole entry): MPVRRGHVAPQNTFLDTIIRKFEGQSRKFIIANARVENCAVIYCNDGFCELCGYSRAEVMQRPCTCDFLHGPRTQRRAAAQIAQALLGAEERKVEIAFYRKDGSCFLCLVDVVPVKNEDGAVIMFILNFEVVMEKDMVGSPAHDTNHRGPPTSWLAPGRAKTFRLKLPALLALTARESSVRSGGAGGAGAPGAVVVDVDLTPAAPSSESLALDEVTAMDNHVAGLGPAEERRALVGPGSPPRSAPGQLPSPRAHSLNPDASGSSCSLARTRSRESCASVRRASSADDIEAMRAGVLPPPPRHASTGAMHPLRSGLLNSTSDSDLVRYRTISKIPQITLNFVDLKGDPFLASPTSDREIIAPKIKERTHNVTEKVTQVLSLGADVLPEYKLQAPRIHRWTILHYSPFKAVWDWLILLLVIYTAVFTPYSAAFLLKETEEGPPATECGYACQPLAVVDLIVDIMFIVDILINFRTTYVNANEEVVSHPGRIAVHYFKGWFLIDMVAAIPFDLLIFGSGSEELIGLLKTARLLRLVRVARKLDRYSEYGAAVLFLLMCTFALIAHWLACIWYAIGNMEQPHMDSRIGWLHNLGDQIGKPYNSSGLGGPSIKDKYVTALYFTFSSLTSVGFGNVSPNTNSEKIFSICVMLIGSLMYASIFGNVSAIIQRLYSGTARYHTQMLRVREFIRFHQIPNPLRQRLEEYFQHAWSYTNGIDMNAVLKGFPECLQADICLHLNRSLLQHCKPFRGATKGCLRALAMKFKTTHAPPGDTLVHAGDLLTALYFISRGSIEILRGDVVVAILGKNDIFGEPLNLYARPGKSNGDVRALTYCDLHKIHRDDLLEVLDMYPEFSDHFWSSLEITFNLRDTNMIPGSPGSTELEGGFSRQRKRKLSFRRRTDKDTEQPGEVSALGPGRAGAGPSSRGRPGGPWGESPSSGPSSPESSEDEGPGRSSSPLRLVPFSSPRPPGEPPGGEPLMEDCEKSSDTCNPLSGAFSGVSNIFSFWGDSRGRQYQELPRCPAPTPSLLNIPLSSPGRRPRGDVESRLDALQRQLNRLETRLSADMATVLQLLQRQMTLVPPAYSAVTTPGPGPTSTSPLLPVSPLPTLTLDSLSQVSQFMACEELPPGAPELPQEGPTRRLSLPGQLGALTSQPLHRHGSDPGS

[20] = Drug concentration in plasma of monoiodoacetate-induced acute Sprague-Dawley rat model of osteoarthritis at 30 mg/kg, po administered for 5 days and measured after 15 mins; type: ADME, organism-based; conditions: time 5 day
[21] = Inhibition of rat Nav 1.7 by FRET based membrane potential assay
[22] = Drug concentration in rat plasma assessed as free fraction; type: ADME, cell-free
[23] = Drug concentration in rat brain assessed as free fraction; type: ADME, tissue-based
[24] = Half-life in orally dosed dog; type: ADME, organism-based, Canis lupus familiaris; conditions: in vivo, route po
[25] = Volume of distribution at steady state in orally dosed dog; type: ADME, organism-based, Canis lupus familiaris; conditions: in vivo, po
[26] = Clearance in iv dosed dog; type: ADME, organism-based, Canis lupus familiaris; conditions: in vivo
[27] = Oral bioavailability in dog; type: ADME, organism-based, Canis lupus familiaris; conditions: in vivo
[28] = Half-life in orally dosed monkey; type: ADME, organism-based, Macaca mulatta; conditions: rhesus monkey, in vivo; route po
[29] = Volume of distribution at steady state in orally dosed monkey; type: ADME, organism-based, Macaca mulatta; conditions: rhesus monkey, in vivo, po
[30] = Clearance in iv dosed monkey; type: ADME, organism-based, Macaca mulatta; conditions: rhesus monkey, in vivo
[31] = Oral bioavailability in monkey; type: ADME, organism-based, Macaca mulatta; conditions: rhesus monkey, in vivo
[32] = Drug concentration in plasma of monoiodoacetate-induced acute Sprague-Dawley rat model of osteoarthritis at 3 mg/kg, po administered for 5 days and measured after 15 mins; type: ADME, organism-based; conditions: time 5 day
[33] = Drug concentration in plasma of monoiodoacetate-induced acute Sprague-Dawley rat model of osteoarthritis at 10 mg/kg, po administered for 5 days and measured after 15 mins; type: ADME, organism-based; conditions: time 5 day
[34] = Drug concentration in brain of monoiodoacetate-induced acute Sprague-Dawley rat model of osteoarthritis at 3 mg/kg, po administered for 5 days and measured after 15 mins; type: ADME, organism-based; conditions: time 5 day, read-out: Ct
[35] = Drug concentration in brain of monoiodoacetate-induced acute Sprague-Dawley rat model of osteoarthritis at 10 mg/kg, po administered for 5 days and measured after 15 mins; type: ADME, organism-based; conditions: time 5 day, read-out: Ct
[36] = Drug concentration in brain of monoiodoacetate-induced acute Sprague-Dawley rat model of osteoarthritis at 30 mg/kg, po administered for 5 days and measured after 15 mins; type: ADME, organism-based; conditions: time 5 day, read-out: Ct
[37] = Drug concentration in plasma of monoiodoacetate-induced chronic Sprague-Dawley rat model of osteoarthritis at 0.3 mg/kg, po administered twice for 1 day; type: ADME, organism-based
[38] = Drug concentration in plasma of monoiodoacetate-induced chronic Sprague-Dawley rat model of osteoarthritis at 1 mg/kg, po administered twice for 1 day; type: ADME, organism-based
[39] = Drug concentration in plasma of monoiodoacetate-induced chronic Sprague-Dawley rat model of osteoarthritis at 3 mg/kg, po administered twice for 1 day; type: ADME, organism-based
[40] = Drug concentration in plasma of monoiodoacetate-induced chronic Sprague-Dawley rat model of osteoarthritis at 10 mg/kg, po administered twice for 1 day; type: ADME, organism-based
[41] = Drug concentration in plasma of monoiodoacetate-induced chronic Sprague-Dawley rat model of osteoarthritis at 0.3 mg/kg, po administered twice daily for 5 days; type: ADME, organism-based; conditions: time 5 day
[42] = Drug concentration in plasma of monoiodoacetate-induced chronic Sprague-Dawley rat model of osteoarthritis at 1 mg/kg, po administered twice daily for 5 days; type: ADME, organism-based; conditions: time 5 day
[43] = Drug concentration in plasma of monoiodoacetate-induced chronic Sprague-Dawley rat model of osteoarthritis at 3 mg/kg, po administered twice daily for 5 days; type: ADME, organism-based; conditions: time 5 day
[44] = Drug concentration in plasma of monoiodoacetate-induced chronic Sprague-Dawley rat model of osteoarthritis at 10 mg/kg, po administered twice daily for 5 days; type: ADME, organism-based; conditions: time 5 day
[45] = Drug concentration in brain of monoiodoacetate-induced chronic Sprague-Dawley rat model of osteoarthritis at 0.3 mg/kg, po administered twice daily for 5 days; type: ADME, organism-based; conditions: time 5 day, read-out: Ct
[46] = Drug concentration in brain of monoiodoacetate-induced chronic Sprague-Dawley rat model of osteoarthritis at 1 mg/kg, po administered twice daily for 5 days; type: ADME, organism-based; conditions: time 5 day, read-out: Ct
[47] = Drug concentration in brain of monoiodoacetate-induced chronic Sprague-Dawley rat model of osteoarthritis at 3 mg/kg, po administered twice daily for 5 days; type: ADME, organism-based; conditions: time 5 day, read-out: Ct
[48] = Drug concentration in brain of monoiodoacetate-induced chronic Sprague-Dawley rat model of osteoarthritis at 10 mg/kg, po administered twice daily for 5 days; type: ADME, organism-based; conditions: time 5 day, read-out: Ct
[49] = Cardiotoxicity in anesthetized rat CV model assessed as effect on PR interval upto 31 uM by ECG analysis; type: toxicity
[50] = Cardiotoxicity in anesthetized rat CV model assessed as effect on QRS complex upto 31 uM by ECG analysis; type: toxicity
[51] = Cardiotoxicity in conscious dog CV model assessed as effect on PR interval upto 47 uM by ECG analysis; type: toxicity, Canis lupus familiaris
[52] = Cardiotoxicity in conscious dog CV model assessed as effect on QRS complex upto 47 uM by ECG analysis; type: toxicity, Canis lupus familiaris
[53] = Drug exposure in plasma of rat; type: ADME; conditions: in vivo
[54] = Effect on locomotor activity in rat by locomotor assay; type: toxicity
[55] = Effect on locomotor activity in rat by rotorod test; type: toxicity
[56] = target: T1, Sodium channel protein type 9 subunit alpha (Homo sapiens, UniProt Q15858); experiment: Inhibition of recombinant human Nav 1.7 expressed in HEK293F cells at […] holding potential by manual voltage clamp electrophysiology method; type: cell-based
T1 sequence (Q15858 whole entry, looked up): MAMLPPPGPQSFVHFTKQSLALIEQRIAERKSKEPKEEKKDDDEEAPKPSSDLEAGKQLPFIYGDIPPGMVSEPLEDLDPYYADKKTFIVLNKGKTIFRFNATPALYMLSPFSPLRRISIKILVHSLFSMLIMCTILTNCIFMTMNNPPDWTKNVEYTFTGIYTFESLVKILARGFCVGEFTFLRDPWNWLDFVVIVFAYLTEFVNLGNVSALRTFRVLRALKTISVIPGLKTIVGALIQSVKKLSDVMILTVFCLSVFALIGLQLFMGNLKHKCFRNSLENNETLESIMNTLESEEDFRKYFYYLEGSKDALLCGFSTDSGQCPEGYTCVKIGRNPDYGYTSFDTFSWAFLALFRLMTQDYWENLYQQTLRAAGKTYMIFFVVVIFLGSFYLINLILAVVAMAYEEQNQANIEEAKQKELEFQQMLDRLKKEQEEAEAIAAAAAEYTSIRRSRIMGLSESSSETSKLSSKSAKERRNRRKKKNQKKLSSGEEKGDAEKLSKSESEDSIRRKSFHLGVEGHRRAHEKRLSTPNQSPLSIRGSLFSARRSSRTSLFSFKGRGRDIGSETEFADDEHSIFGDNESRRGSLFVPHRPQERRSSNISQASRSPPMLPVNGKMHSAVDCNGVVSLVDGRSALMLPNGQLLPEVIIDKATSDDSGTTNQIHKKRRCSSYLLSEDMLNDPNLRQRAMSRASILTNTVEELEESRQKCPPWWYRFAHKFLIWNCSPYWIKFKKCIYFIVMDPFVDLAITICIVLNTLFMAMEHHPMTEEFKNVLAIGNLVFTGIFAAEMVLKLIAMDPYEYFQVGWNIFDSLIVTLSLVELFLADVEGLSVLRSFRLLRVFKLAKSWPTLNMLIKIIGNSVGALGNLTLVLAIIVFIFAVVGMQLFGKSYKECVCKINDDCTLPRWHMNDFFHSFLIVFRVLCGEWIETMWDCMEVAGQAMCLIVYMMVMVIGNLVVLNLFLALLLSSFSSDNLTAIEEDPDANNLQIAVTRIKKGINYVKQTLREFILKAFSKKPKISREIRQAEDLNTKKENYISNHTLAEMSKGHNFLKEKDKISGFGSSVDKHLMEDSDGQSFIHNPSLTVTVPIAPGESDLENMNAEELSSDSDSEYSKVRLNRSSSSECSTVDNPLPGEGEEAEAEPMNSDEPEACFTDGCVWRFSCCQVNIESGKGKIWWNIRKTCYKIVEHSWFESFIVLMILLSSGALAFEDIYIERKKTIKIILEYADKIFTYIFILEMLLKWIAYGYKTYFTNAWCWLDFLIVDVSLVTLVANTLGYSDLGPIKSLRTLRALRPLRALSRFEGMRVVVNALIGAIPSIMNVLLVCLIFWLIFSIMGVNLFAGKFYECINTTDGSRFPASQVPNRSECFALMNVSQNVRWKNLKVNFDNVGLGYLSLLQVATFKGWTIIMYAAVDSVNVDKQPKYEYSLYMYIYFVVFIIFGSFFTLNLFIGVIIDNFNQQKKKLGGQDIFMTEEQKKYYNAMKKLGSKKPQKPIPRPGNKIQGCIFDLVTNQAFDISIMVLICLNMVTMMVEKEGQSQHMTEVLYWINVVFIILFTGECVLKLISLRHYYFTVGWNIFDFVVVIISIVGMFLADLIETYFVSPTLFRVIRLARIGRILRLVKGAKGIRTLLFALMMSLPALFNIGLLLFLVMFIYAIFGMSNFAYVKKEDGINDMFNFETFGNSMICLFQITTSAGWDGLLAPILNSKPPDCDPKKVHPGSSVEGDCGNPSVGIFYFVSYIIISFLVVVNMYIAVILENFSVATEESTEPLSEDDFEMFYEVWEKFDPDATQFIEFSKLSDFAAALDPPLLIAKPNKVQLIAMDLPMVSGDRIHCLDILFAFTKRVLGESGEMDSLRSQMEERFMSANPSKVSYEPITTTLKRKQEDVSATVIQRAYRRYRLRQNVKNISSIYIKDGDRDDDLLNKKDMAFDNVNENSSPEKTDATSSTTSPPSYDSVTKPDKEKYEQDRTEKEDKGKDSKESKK

[57] = target: T1, Sodium channel protein type 9 subunit alpha
[58] = target: Sodium channel protein type 5 subunit alpha (Homo sapiens, UniProt Q14524)
Rattus norvegicus [59] = organism: Rattus norvegicus; experiment: cells; conditions: Sprague-Dawley
in vivo [60] = conditions: Sprague-Dawley, rat, iv
[61] = Drug concentration in brain of monoiodoacetate-induced Sprague-Dawley rat model of osteoarthritis at 3 mg/kg, po administered for 5 days and measured after 15 mins; type: ADME, organism-based; conditions: time 5 day, read-out: Ct
[62] = Drug concentration in brain of monoiodoacetate-induced Sprague-Dawley rat model of osteoarthritis at 10 mg/kg, po administered for 5 days and measured after 15 mins; type: ADME, organism-based; conditions: time 5 day, read-out: Ct
[63] = Drug concentration in brain of monoiodoacetate-induced Sprague-Dawley rat model of osteoarthritis at 30 mg/kg, po administered for 5 days and measured after 15 mins; type: ADME, organism-based; conditions: time 5 day, read-out: Ct
[64] = Toxicity in rat assessed as phospholipidosis measured after 5 days; conditions: 120 h, time 5 day
[65] = Toxicity in rat assessed as phospholipidosis measured after 10 days; conditions: 240 h, time 10 day
Rattus norvegicus [66] = organism: Rattus norvegicus; experiment: animal or person; conditions: Sprague-Dawley; remark: listed apart in the source
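Wherever logD is given: distribution coefficient quantified using high-throughput LC-MS.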
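Wherever solubility is given: determined using a high-throughput solubility method.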

O=C(c1ccc2cc(Oc3ccc(C(F)(F)F)cn3)ccc2n1)N1CCNCC1
IC50 [1]: 6.6 µM
Kp uu [2]: 0.08
concentration at 120 h [3]: 160 ng/mL
concentration at 120 h [4]: 510 ng/mL
concentration at 120 h [5]: 1060 ng/mL
Activity [6]: Non-Toxic
Activity [7]: Non-Toxic
Activity [8]: Non-Toxic
Vdss [9]: 11.5 L/kg
half-life (in vivo [10]): 12.8 h
bioavailability (in vivo [11]): 98%
logD (physchem [12]): 3.1
solubility (physchem [13]): 200 µM (≈ 80.5 µg/mL)
Papp (in vitro): 4.7 ×10⁻⁶ cm/s
EC50 (Rattus norvegicus [14]): 0.17 µg/mL (≈ 0.422 µM)
EC50 (Rattus norvegicus [15]): 0.04 µg/mL (≈ 0.0994 µM)

CS(=O)(=O)CCNC(=O)c1ccc2cc(Oc3ccc(C(F)(F)F)cn3)ccc2n1
Activity (Rattus norvegicus [16]): 35%
Activity (Rattus norvegicus [17]): 68%
Activity (Rattus norvegicus [18]): 63%
IC50 [19]: 30 µM
bioavailability (in vivo [11]): 80.4%
solubility (physchem [13]): 29 µM (≈ 12.7 µg/mL)
Papp (in vitro): 18 ×10⁻⁶ cm/s

O=C(c1ccc2cc(Oc3ccc(C(F)(F)F)cn3)ccc2n1)N1CC[C@@H](F)C1
concentration at 120 h [20]: 10000 ng/mL
Kp uu [2]: 0.29
IC50 [21]: 2.86 µM
fraction unbound [22]: 0.05
fraction unbound [23]: 0.015
half-life [24]: 13.4 h
Vdss [25]: 4.1 L/kg
clearance [26]: 5 mL/min/kg
bioavailability [27]: 85%
half-life [28]: 7.6 h
Vdss [29]: 3.6 L/kg
clearance [30]: 5 mL/min/kg
bioavailability [31]: 110%
concentration at 120 h [32]: 1410 ng/mL
concentration at 120 h [33]: 5180 ng/mL
concentration at 120 h [34]: 1530 ng/mL
concentration at 120 h [35]: 5240 ng/mL
concentration at 120 h [36]: 10800 ng/mL
concentration at 24 h [37]: 70 ng/mL
concentration at 24 h [38]: 270 ng/mL
concentration at 24 h [39]: 750 ng/mL
concentration at 24 h [40]: 3440 ng/mL
concentration at 120 h [41]: 140 ng/mL
concentration at 120 h [42]: 480 ng/mL
concentration at 120 h [43]: 1480 ng/mL
concentration at 120 h [44]: 5480 ng/mL
concentration at 120 h [45]: 110 ng/mL
concentration at 120 h [46]: 260 ng/mL
concentration at 120 h [47]: 1140 ng/mL
concentration at 120 h [48]: 4230 ng/mL
Activity [49]: Non-Toxic
Activity [50]: Non-Toxic
Activity [51]: Non-Toxic
Activity [52]: Non-Toxic
Cp [53]: 11200 ng/mL
Activity [54]: Non-Toxic
Activity [55]: Non-Toxic
IC50 [56]: 1.1 µM
IC50 [57]: 3.14 µM
IC50 [58]: 33 µM
Vdss [9]: 4.06 L/kg
EC50 (Rattus norvegicus [59]): 4 µg/mL (≈ 9.87 µM)
clearance (in vivo [60]): 7.17 mL/min/kg
half-life (in vivo [10]): 5.44 h
bioavailability (in vivo [11]): 80%
solubility (physchem [13]): 84 µM (≈ 34 µg/mL)
EC50 (Rattus norvegicus [14]): 1.4 µg/mL (≈ 3.45 µM)
EC50 (Rattus norvegicus [15]): 0.24 µg/mL (≈ 0.592 µM)

O=C(c1ccc2cc(Oc3ccc(C(F)F)cn3)ccc2n1)N1CCNCC1
IC50 [1]: 12.8 µM
Kp uu [2]: 0.14
concentration at 120 h [3]: 1000 ng/mL
concentration at 120 h [4]: 4170 ng/mL
concentration at 120 h [5]: 9110 ng/mL
concentration at 120 h [61]: 200 ng/mL
concentration at 120 h [62]: 720 ng/mL
concentration at 120 h [63]: 1560 ng/mL
Activity [64]: Non-Toxic
Activity [65]: Toxic
IC50 [19]: 29.5 µM
Vdss [9]: 5.42 L/kg
half-life (in vivo [10]): 3.38 h
bioavailability (in vivo [11]): 96%
logD (physchem [12]): 2.4
solubility (physchem [13]): 150 µM (≈ 57.7 µg/mL)
Papp (in vitro): 3.3 ×10⁻⁶ cm/s
EC50 (Rattus norvegicus [66]): 0.45 µg/mL (≈ 1.17 µM)
